Experimental findings from US7960377B2 (priority 2008, dated 2011) are described below.

For one experiment, the target named is T1, rat CB2 receptor (Rattus norvegicus, UniProt Q9QZN9).
T1 sequence (Q9QZN9 1-360): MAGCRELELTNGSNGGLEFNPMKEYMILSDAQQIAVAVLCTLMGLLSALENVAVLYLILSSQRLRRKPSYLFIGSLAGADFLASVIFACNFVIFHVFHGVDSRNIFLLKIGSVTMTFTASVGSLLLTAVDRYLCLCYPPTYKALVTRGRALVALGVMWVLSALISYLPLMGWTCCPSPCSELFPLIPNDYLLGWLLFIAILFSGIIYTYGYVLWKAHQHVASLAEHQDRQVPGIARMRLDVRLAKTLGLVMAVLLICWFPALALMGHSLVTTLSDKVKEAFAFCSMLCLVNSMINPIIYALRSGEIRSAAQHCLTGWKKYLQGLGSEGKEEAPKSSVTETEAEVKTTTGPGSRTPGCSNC
Nature of the experiment: cell-based. The format is cell-based.

In the next experiment the target is human CB1 receptor (Homo sapiens, UniProt P21554). As to the kind of experiment: cell-based.
human CB1 receptor, sequence (P21554 whole entry): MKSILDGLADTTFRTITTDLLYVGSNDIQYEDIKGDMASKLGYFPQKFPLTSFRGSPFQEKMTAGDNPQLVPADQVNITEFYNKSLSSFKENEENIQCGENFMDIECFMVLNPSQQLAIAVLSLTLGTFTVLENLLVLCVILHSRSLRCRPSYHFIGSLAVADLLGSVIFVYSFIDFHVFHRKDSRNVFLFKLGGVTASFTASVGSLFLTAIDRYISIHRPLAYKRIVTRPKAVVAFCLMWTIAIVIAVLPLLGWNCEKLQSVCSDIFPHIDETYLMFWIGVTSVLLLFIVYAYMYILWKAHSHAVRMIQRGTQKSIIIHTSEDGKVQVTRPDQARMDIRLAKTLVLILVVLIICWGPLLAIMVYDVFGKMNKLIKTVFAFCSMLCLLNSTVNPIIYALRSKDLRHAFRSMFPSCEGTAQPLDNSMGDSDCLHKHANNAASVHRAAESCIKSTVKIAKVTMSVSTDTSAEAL

For `CC(C)(C)NC(=O)c1cnc2c(c1)N(S(=O)(=O)N1CCCCC1)CCO2` [Example 2, N-tert-butyl-1-(piperidin-1-ylsulfonyl)-2,3-dihydro-1H-pyrido[2,3-b][1,4]oxazine-7-carboxamide], the EC50 at rat CB2 receptor was no more than 0.03 µM.

Regarding `CC(C)CNC(=O)c1cnc2c(c1)N(S(=O)(=O)c1ccc(F)cc1)CCO2` [Example 8, 1-(4-fluorophenyl-sulfonyl)-N-isobutyl-2,3-dihydro-1H-pyrido[2,3-b][1,4]oxazine-7-carboxamide], on rat CB2 receptor, the EC50 was no more than 0.03 µM.

Regarding `O=C(NC1CCCC1)c1cnc2c(c1)N(S(=O)(=O)c1ccc(F)cc1)CCO2` [Example 10], the concentration giving a half-maximal response (EC50) on rat CB2 receptor is no more than 0.03 µM.

Regarding `CC(C)(CO)NC(=O)c1cnc2c(c1)N(S(=O)(=O)c1ccc(C(F)(F)F)cc1)CCO2` [Example 39, N-(1-hydroxy-2-methyl-propan-2-yl)-1-(4-(trifluoromethyl)phenylsulf-onyl)-2,3-dihydro-1H-pyrido[2,3-b][1,4]oxazine-7-carboxamide], the EC50 on rat CB2 receptor is no more than 0.03 µM.

The compound `CCN(C(=O)c1cnc2c(c1)N(S(=O)(=O)c1ccc(C(F)(F)F)cc1)CCO2)C(C)(C)C` [Example 42, N-tert-butyl-N-ethyl-1-(4-(trifluoromethyl)phenylsulf-onyl)-2,3-dihydro-1H-pyrido[2,3-b][1,4]oxazine-7-carboxamide] came in with a 50% effective concentration (EC50) on rat CB2 receptor of no more than 0.03 µM.

In the case of `CNC(=O)[C@@H](N(C)C(=O)c1cnc2c(c1)N(S(=O)(=O)c1ccc(F)cc1)CCO2)C(C)(C)C` [Example 58, (S)-N-(3,3-dimethyl-1-(methylamino)-1-oxobutan-2-yl)-1-(4-fluorophenylsulfonyl)-N-methyl-2,3-dihydro-1H-pyrido[2,3-b][1,4]oxazine-7-carboxamide], at rat CB2 receptor, the EC50 was no more than 0.03 µM.

For `O=C(NC1(CO)CCCC1)c1cnc2c(c1)N(S(=O)(=O)c1ccc(C(F)(F)F)cc1)CCO2` [Example 67, N-(1-(hydroxymethyl)-cyclopentyl)-1-(4-(trifluoromethyl)phenylsulf-onyl)-2,3-dihydro-1H-pyrido[2,3-b][1,4]oxazine-7-carboxamide], the EC50 at rat CB2 receptor is no more than 0.03 µM.

Consider `C[C@H]1CCCCN1C(=O)c1cnc2c(c1)N(S(=O)(=O)c1ccc(C(F)(F)F)cc1)CCO2` [Example 69, (S)-(2-methylpiperidin-1-yl)(1-(4-(trifluoromethyl)-phenylsulfonyl)-2,3-dihydro-1H-pyrido[2,3-b][1,4]oxazin-7-yl)-methanone], for which the EC50 on rat CB2 receptor is no more than 0.03 µM.

For `CC(C)(CO)NC(=O)c1cnc2c(c1)N(S(=O)(=O)c1ccc(F)cc1F)CCO2` [Example 102, 1-(2,4-difluorophenylsulfonyl)-N-(1-hydroxy-2-methylpropan-2-yl)-2,3-dihydro-1H-pyrido[2,3-b][1,4]oxazine-7-carboxamide], the EC50 at rat CB2 receptor is no more than 0.03 µM.

In the case of `CC(C)(O)CNC(=O)c1cnc2c(c1)N(S(=O)(=O)c1ccc(F)c(F)c1)CCO2` [Example 109, 1-(3,4-difluorophenylsulfonyl)-N-(2-hydroxy-2-methylpropyl)-2,3-dihydro-1H-pyrido[2,3-b][1,4]oxazine-7-carboxamide], the 50% effective concentration (EC50) at rat CB2 receptor was no more than 0.03 µM.

`O=C(N[C@H]1CCC[C@@H]1O)c1cnc2c(c1)N(S(=O)(=O)c1ccc(Cl)cc1F)CCO2` [Example 111, 1-(4-chloro-2-fluorophenylsulfonyl)-N-((1S,2S)-2-hydroxycyclopentyl)-2,3-dihydro-1H-pyrido[2,3-b][1,4]oxazine-7-carboxamide] gave an EC50 on rat CB2 receptor of no more than 0.03 µM.

Consider `CC(C)(CN1CCOCC1)NC(=O)c1cnc2c(c1)N(S(=O)(=O)c1ccc(Cl)c(Cl)c1)CCO2` [Example 112, 1-(3,4-dichlorophenylsulfonyl)-N-(2-methyl-1-morpholinopropan-2-yl)-2,3-dihydro-1H-pyrido[2,3-b][1,4]oxazine-7-carboxamide], for which the EC50 on rat CB2 receptor was no more than 0.03 µM.

Regarding `CN(CC(C)(C)CO)C(=O)c1cnc2c(c1)N(S(=O)(=O)c1ccc(Cl)c(Cl)c1)CCO2` [Example 121, 1-(3,4-dichlorophenylsulfonyl)-N-(3-hydroxy-2,2-dimethylpropyl)-N-methyl-2,3-dihydro-1H-pyrido[2,3-b][1,4]oxazine-7-carboxamide], the EC50 at rat CB2 receptor was no more than 0.03 µM.

On to `CC1(C)COCN1C(=O)c1cnc2c(c1)N(S(=O)(=O)c1ccc(Cl)c(Cl)c1)CCO2` [Example 124, (1-(3,4-dichlorophenyl-sulfonyl)-2,3-dihydro-1H-pyrido[2,3-b][1,4]oxazin-7-yl)(4,4-dimethyl-oxazolidin-3-yl)methanone], for which the concentration giving a half-maximal response (EC50) on rat CB2 receptor is no more than 0.03 µM.

For `CC(C)(CO)CNC(=O)c1cnc2c(c1)N(S(=O)(=O)c1ccc(Cl)c(Cl)c1)CCO2` [Example 131, 1-(3,4-dichlorophenyl-sulfonyl)-N-(3-hydroxy-2,2-dimethylpropyl)-2,3-dihydro-1H-pyrido[2,3-b][1,4]oxazine-7-carboxamide], the EC50 at rat CB2 receptor was no more than 0.03 µM.

Turning to `O=C(N[C@H]1CCC[C@H]1O)c1cnc2c(c1)N(S(=O)(=O)c1ccc(Cl)c(Cl)c1)CCO2` [Example 132, 1-(3,4-dichlorophenyl-sulfonyl)-N-((1S,2R)-2-hydroxycyclopentyl)-2,3-dihydro-1H-pyrido[2,3-b][1,4]oxazine-7-carboxamide], the EC50 at rat CB2 receptor was no more than 0.03 µM.

For `COC(=O)C(C)(C)NC(=O)c1cnc2c(c1)N(S(=O)(=O)c1ccc(Cl)c(Cl)c1)CCO2` [Example 136, methyl 2-(1-(3,4-dichlorophenylsulfonyl)-2,3-dihydro-1H-pyrido[2,3-b][1,4]oxazine-7-carboxamido)-2-methylpropanoate], at rat CB2 receptor, the half-maximal effective concentration (EC50) is no more than 0.03 µM.

On to `CCC(C)(C)NC(=O)c1cnc2c(c1)N(S(=O)(=O)N1CCOCC1)CCO2` [Example 142, 1-(morpholinosulfonyl)-N-tert-pentyl-2,3-dihydro-1H-pyrido[2,3-b][1,4]oxazine-7-carboxamide], for which, at rat CB2 receptor, the 50% effective concentration (EC50) is no more than 0.03 µM.

On rat CB2 receptor, `CC(C)(C)NC(=O)c1cnc2c(c1)N(S(=O)(=O)N1CCCC1)CCO2` [Example 148, N-tert-butyl-1-(pyrrolidin-1-ylsulfonyl)-2,3-dihydro-1H-pyrido[2,3-b][1,4]oxazine-7-carboxamide] displayed an EC50 of no more than 0.03 µM.

For the compound `CC(C)(CO)NC(=O)c1cnc2c(c1)N(S(=O)(=O)N1CCCC1)CCO2` [Example 149, N-(1-hydroxy-2-methylpropan-2-yl)-1-(pyrrolidin-1-ylsulfonyl)-2,3-dihydro-1H-pyrido[2,3-b][1,4]oxazine-7-carboxamide], on rat CB2 receptor, the EC50 was no more than 0.03 µM.

At rat CB2 receptor, `CC(C)(C)NC(=O)c1cnc2c(c1)N(S(=O)(=O)N1CCC(C(F)(F)F)CC1)CCO2` [Example 150, N-tert-butyl-1-(4-(trifluoromethyl)piperidin-1-ylsulfonyl)-2,3-dihydro-1H-pyrido[2,3-b][1,4]oxazine-7-carboxamide] had a 50% effective concentration (EC50) of no more than 0.03 µM.

On human CB1 receptor, `CC1CN(C(=O)c2cnc3c(c2)N(S(=O)(=O)c2ccc(C(F)(F)F)cc2)CCO3)CC(C)O1` (stereo not shown) [Example 198, (2,6-dimethylmorpholino)(1-(4-(trifluoromethyl)phenylsulf-onyl)-2,3-dihydro-1H-pyrido[2,3-b][1,4]oxazin-7-yl)methanone] yielded an EC50 greater than 30 µM.

As to `CC1CC(C)CN(C(=O)c2cnc3c(c2)N(S(=O)(=O)c2ccc(C(F)(F)F)cc2)CCO3)C1` (stereo not shown) [Example 200, (3,5-dimethylpiperidin-1-yl)(1-(4-(trifluoromethyl)phenylsulf-onyl)-2,3-dihydro-1H-pyrido[2,3-b][1,4]oxazin-7-yl)methanone], the 50% effective concentration (EC50) on human CB1 receptor is greater than 30 µM.

`O=C(OCC1CCCCN1)c1cnc2c(c1)N(S(=O)(=O)c1ccc(C(F)(F)F)cc1)CCO2` (stereo not shown) [Example 202, piperidin-2-ylmethyl 1-(4-(trifluoromethyl)phenylsulfonyl)-2,3-dihydro-1H-pyrido[2,3-b][1,4]oxazine-7-carboxylate] registered a concentration giving a half-maximal response (EC50) on human CB1 receptor greater than 30 µM.

The compound `CNCCOC(=O)c1cnc2c(c1)N(S(=O)(=O)c1ccc(Cl)c(Cl)c1)CCO2` [Example 203, 2-(methylamino)ethyl 1-(3,4-dichlorophenylsulfonyl)-2,3-dihydro-1H-pyrido[2,3-b][1,4]oxazine-7-carboxylate] showed an EC50 at human CB1 receptor greater than 30 µM.

`CNCC(C)(C)COC(=O)c1cnc2c(c1)N(S(=O)(=O)c1ccc(Cl)c(Cl)c1)CCO2` [Example 204, 2,2-dimethyl-3-(methylamino)propyl 1-(3,4-dichlorophenylsulfonyl)-2,3-dihydro-1H-pyrido[2,3-b][1,4]oxazine-7-carboxylate]: the EC50 at human CB1 receptor was greater than 30 µM.

`O=C(c1noc(-c2cnc3c(c2)N(S(=O)(=O)c2ccc(F)cc2)CCO3)n1)N1CCOCC1` [Example 215, (5-(1-(4-fluorophenyl-sulfonyl)-2,3-dihydro-1H-pyrido[2,3-b][1,4]oxazin-7-yl)-1,2,4-oxadiazol-3-yl)(morpholino)methanone] had a concentration giving a half-maximal response (EC50) on human CB1 receptor greater than 30 µM.

The compound `O=C(NC1CCCC1)c1cnc2c(c1)N(Cc1ccccc1)C(=O)CO2` [Example 219, 1-benzyl-N-cyclopentyl-2-oxo-2,3-dihydro-1H-pyrido[2,3-b] [1,4]oxazine-7-carboxamide] gave a concentration for a half-maximal effect (EC50) on human CB1 receptor greater than 30 µM.

Consider `CC(C)(C)NC(=O)c1cnc2c(c1)N(Cc1ccccc1)C(=O)CO2` [Example 220, 1-benzyl-N-tert-butyl-2-oxo-2,3-dihydro-1H-pyrido[2,3-b] [1,4]oxazine-7-carboxamide], for which the EC50 on human CB1 receptor was greater than 30 µM.

The compound `O=C(NC1CCCC1)c1cnc2c(c1)N(Cc1ccc(F)cc1)C(=O)CO2` [Example 221, N-cyclopentyl-1-(4-fluorobenzyl)-2-oxo-2,3-dihydro-1H-pyrido[2,3-b] [1,4]oxazine-7-carboxamide] returned a half-maximal effective concentration (EC50) at human CB1 receptor greater than 30 µM.

Regarding `O=C(NC1CCCC1)c1cnc2c(c1)N(Cc1ccc(Cl)cc1)C(=O)CO2` [Example 222, 1-(4-chlorobenzyl)-N-cyclopentyl-2-oxo-2,3-dihydro-1H-pyrido[2,3-b][1,4]oxazine-7-carboxamide], at human CB1 receptor, the EC50 is greater than 30 µM.

What is called EC50 is the concentration at which the effect is half-maximal.
